Measured values: patent publication US7132458B2, “Oxidized carotenoid fractions and ketoaldehyde useful as cell-differentiation inducers, cytostatic agents, and anti-tumor agents” (Chemaphor Inc., priority 1994, dated 2006)

How the values were obtained:
K562 = details: from U.S. Ser. No. 08/527,039; cited from earlier work
[1] = test system: LNCaP-FGC-10 prostate tumors; assay: Human xenograft tumor growth, nude mice; assay type: in vivo, mouse
Description: The ketoaldehyde is also active against human LNCaP-FGC-10 prostate tumors grown in nude mice.

[2] = test system: MCF-7 human breast cancer tumor; assay: Human xenograft tumor growth, nude mice; assay type: in vivo, mouse; details: 40 mg/kg body weight
Description: […] […] While the MCF-7 cell line appears to be less susceptible to the ketoaldehyde than the SW480 cell line, it should be noted that the MCF-7-derived tumors grow more aggressively than those derived from SW480, which necessitated using 20-fold fewer MCF-7 cells to obtain an initially slower rate of tumor growth.

LS174T colorectal tumor = assay: Human xenograft tumor growth, SCID mice; assay type: in vivo, mouse; details: thrice-weekly dosing 40 mg/kg
[3] = test system: DA-3 mammary adenocarcinoma; details: over 28 days; from U.S. Ser. No. 08/527,039; cited from earlier work
HCT116 = details: from U.S. Ser. No. 08/527,039; cited from earlier work
[4] = test system: SW480 human colorectal tumor; assay: Human xenograft tumor growth, nude mice; assay type: in vivo, mouse; details: 40 mg/kg body weight three times per week, FIG. 14
Protocol: FIG. 14 is a graph illustrating the inhibition of growth by the ketoaldehyde of a tumor derived from human colorectal cancer cells. Balb/c nude mice were inoculated subcutaneously in the flank with 5.0×10^6 cells of the SW-480 human colorectal adenocarcinoma cell line. There were 7 control animals and 7 animals in the treatment group. The administration schedule was 40 mg/kg of ketoaldehyde in 20% ethanol in saline given by intraperitoneal injection 3 times per week (Monday, Wednesday and Friday).
The ketoaldehyde provides a significant degree of tumor growth control for a period of more than 67 days in a nude mouse xenograft model of human colon cancer (human colon cancer cell line, SW480; see FIG. 14).

[5] = test system: NB4 acute promyelocytic leukemia; assay: Inhibition of proliferation, fluorescence-based assay; assay type: cell-based; details: Homo sapiens, 10–175 μM, 72 hours, read-out: Relative Inhibition of Proliferation
Protocol: (§1) The effect of the ketoaldehyde upon the inhibition of cell proliferation in cultured cancer cells was determined using a conventional, fluorescence-based anti-proliferative assay and a flow cytometry method. The extent of apoptosis was determined for some cell lines as well.
(§2) The effect of different concentrations of the ketoaldehyde upon the proliferation of the SW480 colorectal and MCF-7 breast cancer cell lines as a function of time is provided in FIGS. 12 and 13, respectively. The inhibition of proliferation in individual cell lines is summarized in Table 10, which provides a relative ranking of the ketoaldehyde's IC50 for each cell line.

[6] = test system: K562 chronic myelogenous leukemia; assay: as above; assay type: cell-based; details: Homo sapiens, 10–175 μM, 72 hours, read-out: Relative Inhibition of Proliferation
Protocol: as §1, §2

HT29 colon cancer = assay: as above; assay type: cell-based; details: Homo sapiens, HT-29, 10–175 μM, 72 hours, read-out: Relative Inhibition of Proliferation
Protocol: as §1, §2

IMR32 neuroblastoma = assay: as above; assay type: cell-based; details: Homo sapiens, IMR-32, 10–175 μM, 72 hours, read-out: Relative Inhibition of Proliferation
Protocol: as §1, §2

HCT116 colon cancer = assay: as above; assay type: cell-based; details: Homo sapiens, HCT-116, 10–175 μM, 72 hours, read-out: Relative Inhibition of Proliferation
Protocol: as §1, §2

Lewis lung carcinoma = Lewis lung carcinoma model, lung metastases; assay type: in vivo, mouse
Protocol: The well-known Lewis lung carcinoma model was used as follows: cells were injected subcutaneously into the flanks of C57 BL/6 mice, which were assigned into control and treated groups containing ten animals per group. On day 8, the tumor was excised. The ketoaldehyde (200 mg/kg body weight) in 20% aqueous ethanol or drug vehicle (aqueous ethanol) was administered intraperitoneally on days 9, 11, 13, 15 and 19. On day 22, the animals were sacrificed and their lungs were removed. The lungs were weighed and the number of metastases determined by counting the nodules established in each lung.

NB4 = details: from U.S. Ser. No. 08/527,039; cited from earlier work
Pilot toxicity study = assay type: in vivo
Protocol: Significant inhibition of tumor growth has been obtained with doses of only 10–40 mg/kg body weight. Thus, the ketoaldehyde has a therapeutic index (400/(10–40)) of approximately 10 to 40.

IMR32 = details: from U.S. Ser. No. 08/527,039; cited from earlier work
[7] = test system: HL-60 acute promyelocytic leukemia; assay: Inhibition of proliferation and apoptosis, flow cytometry; assay type: cell-based; details: Homo sapiens, 20–100 μM, 24, 48, 72 and 96 hours, read-out: Relative Inhibition of Proliferation
Protocol: as §1, §2

[8] = test system: D 341 medulloblastoma (brain); assay: as above; assay type: cell-based; details: Homo sapiens, D341, 20–100 μM, 24, 48, 72 and 96 hours, read-out: Relative Inhibition of Proliferation
Protocol: as §1, §2

[9] = test system: NCI-H23 non-small cell lung cancer; assay: as above; assay type: cell-based; details: Homo sapiens, 20–100 μM, 24, 48, 72 and 96 hours, read-out: Relative Inhibition of Proliferation
Protocol: as §1, §2

[10] = test system: SW480 colorectal adenocarcinoma; assay: as above; assay type: cell-based; details: Homo sapiens, 20–100 μM, 24, 48, 72 and 96 hours, read-out: Relative Inhibition of Proliferation
Protocol: as §1, §2

[11] = test system: MCF-7 breast adenocarcinoma; assay: as above; assay type: cell-based; details: Homo sapiens, MCF7, 20–100 μM, 24, 48, 72 and 96 hours, read-out: Relative Inhibition of Proliferation
Protocol: as §1, §2

[12] = test system: SK-Mel malignant melanoma epidermal; assay: as above; assay type: cell-based; details: Homo sapiens, 20–100 μM, 24, 48, 72 and 96 hours, read-out: Relative Inhibition of Proliferation
Protocol: as §1, §2

[13] = test system: HCC 1143 breast carcinoma; assay: as above; assay type: cell-based; details: Homo sapiens, HCC1143, 20–100 μM, 24, 48, 72 and 96 hours, read-out: Relative Inhibition of Proliferation
Protocol: as §1, §2

CC(=O)C=CC=C(C)C=O [the ketoaldehyde, 2-methyl-6-oxo-2,4-heptadienal]
cytostatic effect (K562): cytostatic effect
activity against tumors [1]: active
tumor response ([2]; daily dosing): improved response
tumor response ([2]; thrice-weekly dosing): responded
tumor response (LS174T colorectal tumor): responded well
tumor volume [3]: less than 50 % of the control
cytostatic effect (HCT116): cytostatic effect
period of significant tumor growth control [4]: more than 67 days
IC50 [5]: ~100 µM
IC50 [6]: > 100 µM
IC50 (HT29 colon cancer): ~100 µM
IC50 (IMR32 neuroblastoma): ~50 µM
IC50 (HCT116 colon cancer): ~50 µM
Mean Lung Weight ± SEM (Lewis lung carcinoma; 200 mg/kg i.p. days 9, 11, 13, 15, 19, day 22, control 0.287 ± 0.013 g, 2-tail t-test 0.004): 0.229 ± 0.012 g
Mean No. Metastases ± SEM (Lewis lung carcinoma; 200 mg/kg i.p. days 9, 11, 13, 15, 19, day 22, control 28.0 ± 2.4, 2-tail t-test 0.01): 14.4 ± 4.1
Difference in Mean Lung Weight, control minus treated (Lewis lung carcinoma; 200 mg/kg i.p., day 22): 0.058 g
Difference in Mean No. Metastases, control minus treated (Lewis lung carcinoma; 200 mg/kg i.p., day 22): 13.6
reduction in the number of lung metastases (Lewis lung carcinoma; treated animals versus control): ~50%
cytostatic effect (NB4): cytostatic effect
LD100 (Pilot toxicity study; mice, pilot toxicity study): approximately 400 mg/kg body weight
therapeutic index (400/(10–40)) (Pilot toxicity study; mouse, in vivo): 10–40
toxicity at therapeutically functional doses (Pilot toxicity study; mouse, in vivo): No toxicity
cytostatic effect (IMR32): cytostatic effect
IC50 [7]: ~50 µM
IC50 [8]: ~50 µM
IC50 [9]: ~50 µM
IC50 [10]: ~50 µM
IC50 [11]: ~50 µM
IC50 [12]: ~100 µM
IC50 [13]: > 100 µM
